Patent publication US10472418B2, “Composition for preventing or treating lung cancer comprising antibody against CD66C and chemotherapeutic agent” (DINONA, priority 2016, dated 2019)

System: anti-CD66c antibody, AP11
Assay: Inhibition of AP11 binding on A549 cells by recombinant antigen, flow cytometry
Settings: 10, 50 and 100 μg recombinant antigen conjugated with AP11 before A549 cells
Protocol: In order to confirm whether the purified recombinant antigen (CD66c-HuIgFc) in the above Example 1-3 acts as CD66c antigen, inhibition of conjugation of anti-CD66c antibody, AP11, on the surface of A549 cells by the above recombinant antigen was confirmed by flow cytometry, and the result is shown in FIG. 6.
Specifically, after conjugating 0, 10, 50 and 100 μg of the above recombinant antigen with AP11 antibody for 30 min at 4° C., it was added to A549 cells and reacted for 30 min at 4° C., added with 3 ml of PBS, centrifuged for 3 min at 1500 rpm and washed. To confirm the conjugated antibody, secondary antibody, goat anti-Mouse IgM FITC (DiNonA) was diluted 200 times, added, reacted for 15 min at 4° C., washed as above with 3 ml of PBS and measured by flow cytometry.

CD66c-HuIgFc: recombinant antigen linking CD66c 34~340 aa region and human immunoglobulin Fc region CH2-CH3
blocking of anti-CD66c mAb (AP11) binding to A549 cells: blocking was observed proportional to the treated amount
